The subject of assay [1] is HEK293. The assay is described as follows: Induction of glucose uptake in HEK293 cells assessed as increase in 2-NBDG uptake at 3 uM incubated for 48 hrs followed by treated with 2-DG by fluorescence assay. It is filed as functional, cell-based. Conditions: Homo sapiens.
The subject of assay [2] is HEK293. The assay can be described thus: Induction of glucose uptake in HEK293 cells assessed as increase in 2-NBDG uptake at 3 uM incubated for 48 hrs followed by treated with 2-DG in presence of EDTA by fluorescence assay. Conditions: Homo sapiens. The class given is functional, cell-based.

The source made the active and inactive calls. The calls are words filed in the database; no cut-off is given here.

With `C/C1=C\CC/C(CO)=C/[C@@H](O)[C@H]2[C@H](C1)OC(=O)[C@H]2C`, the outcome with HEK293 [1] was Active. Also, the outcome in the assay on HEK293 [2] was inactive.

As for `CC1(C)C(=O)O[C@]2(C)C=C1C[C@H](O)C2`, the outcome in the assay on HEK293 [1] and with HEK293 [2] was Active.

Turning to `COc1cc([C@@H]2OC[C@H]3C(=O)OC[C@H]32)ccc1O`, the outcome in the assay on HEK293 [1] was Active. In addition, in the assay on HEK293 [2], the outcome was inactive.

`C=C(C(=O)O[C@H]1C/C(C)=C/CC/C(CO)=C/[C@H]2OC(=O)[C@@H](C)[C@H]12)[C@@H](O)CO`: the result in the assay on HEK293 [1] and in the assay on HEK293 [2] was Active.
